Results from PMC12470121, “Exploring the Novel Pancreatic Lipase-Inhibitory Peptides in Chlorella pyrenoidosa: Preparation, Purification, Identification, and Molecular Docking” (Foods, 2025).

Key:
pancreatic lipase (PL) [1] = target: T1, pancreatic lipase (PL) (Sus scrofa, UniProt P00591); experiment: PL inhibition assay (pNPP substrate); assay type: biochemical, porcine; conditions: CPPH-I at 8 mg/mL vs orlistat at 8 µg/mL; p > 0.05
T1 construct: Pancreatic lipase (derived from porcine pancreas); purchased Yuanye Biotech (Shanghai, China); host or cells: porcine pancreas
T1 sequence (P00591 1-450): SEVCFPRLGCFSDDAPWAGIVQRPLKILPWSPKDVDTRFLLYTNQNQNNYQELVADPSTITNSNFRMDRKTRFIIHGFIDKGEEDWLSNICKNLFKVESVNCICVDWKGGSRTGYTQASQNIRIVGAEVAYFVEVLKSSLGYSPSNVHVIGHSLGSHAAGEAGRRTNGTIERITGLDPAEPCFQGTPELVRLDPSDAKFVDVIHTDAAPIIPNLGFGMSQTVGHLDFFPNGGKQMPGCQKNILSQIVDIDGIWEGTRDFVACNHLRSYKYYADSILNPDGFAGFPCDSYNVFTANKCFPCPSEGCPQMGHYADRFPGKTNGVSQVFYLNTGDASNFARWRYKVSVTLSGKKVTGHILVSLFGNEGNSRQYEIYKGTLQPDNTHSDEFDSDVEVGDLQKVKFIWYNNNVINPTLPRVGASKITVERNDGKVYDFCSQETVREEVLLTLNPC
Procedure: To evaluate the inhibitory activity of the peptide fractions against PL, we conducted experiments according to Zhang et al.. Briefly, a mixture containing 120 μL of PL (10 mg/mL), 40 μL of peptide sample, and 80 μL of 50 mmol/L Tris-HCl buffer (pH 8.0) was incubated at 37 °C for 10 min. Then, 160 μL of 0.8 mmol/L p-nitrophenyl palmitate (pNPP) dissolved in dimethyl sulfoxide was added to initiate the reaction. After incubation at 37 °C for 20 min, the reaction was terminated by heating in a water bath at 100 °C for 5 min, followed by centrifugation to remove precipitated material. The absorbance of 200 μL of the supernatant was measured at 405 nm using a microplate reader (Infinite® 200 PRO, Tecan, Männedorf, Switzerland). For the control group, the peptide sample was replaced with an equal volume of buffer; in the blank group, the PL solution was replaced with buffer. Finally, the activity of PL was calculated using Equation (1). (1) PL activity%=[1−B−b/(A−a)]×100% where A denotes the absorbance of the control group, B the absorbance of the sample group, a the absorbance of the control blank group, and b the absorbance of the sample blank group.

pancreatic lipase (PL) [2] = conditions: cited from earlier work
From the text: Their mechanisms of action are closely linked to a high hydrophobic amino acid content. […] Among them, the pancreatic lipase activity of VWTP was better. […] (36.28% pan ...

[3] = test system: intracellular triglyceride accumulation; conditions: ref [15]; cited from earlier work
From the text: Their mechanisms of action are closely linked to a high hydrophobic amino acid content.

[4] = target: T2, Pancreatic lipase (derived from porcine pancreas) (porcine) (UniProt P00591)
T2 sequence: T1 sequence (P00591 1-450)

Q: For `CCCCCCCCCCC[C@@H](C[C@@H]1OC(=O)[C@H]1CCCCCC)OC(=O)[C@H](CC(C)C)NC=O` [orlistat], which “PL-I activity compared with orlistat” value (pancreatic lipase (PL) [1]) is on record?
A: no significant difference between CPPH-I and orlistat

Q: Which IC50 (pancreatic lipase (PL) [2]; peptide from rice bran, ref [13], read-out: Pancreatic lipase inhibition IC50) does the source give for “FYLGYCDY [peptide derived from rice bran fat extract (literature)]” here?
A: 470 ± 20 nM

Q: Which results are given for “LLVVYPWTQR [peptide isolated from Chlorella (literature)]”?
A: Pancreatic lipase inhibition (in words) (pancreatic lipase (PL) [2]; isolated from Chlorella, ref [15]): demonstrated efficacy in inhibiting pancreatic lipase; Reduction of intracellular triglyceride accumulation (in words) [3]: reducing intracellular triglyceride accumulation

Q: Which “Pancreatic lipase-inhibitory activity (in words)” value (pancreatic lipase (PL) [2]; oat bran-derived, ref [14]) does the source give for “SPFWNINAH [oat bran-derived peptide (literature)]” here?
A: activity indicates its promise as an anti-obesity drug

Q: For IVGPF, which PL inhibition rate at 2 mg/mL peptide (pNPP hydrolysis, absorbance at 405 nm) [4] is on record?
A: 7.64%

Q: For IPYPL, which PL inhibition rate at 2 mg/mL peptide (pNPP hydrolysis, absorbance at 405 nm) [4] is on record?
A: 4.49%

Q: For FLSQPF, which PL inhibition rate at 2 mg/mL peptide (pNPP hydrolysis, absorbance at 405 nm) [4] is on record?
A: 11.5%
